Measurements: patent publication US6831078B1, “Azetidinecarboxamide derivatives for treating CNS disorders” (Vernalis Research Limited, priority 1998, dated 2004)
Where a name gives a salt, the structure may show the parent alone. Marks after values point to notes of the source that are not given here.

What was measured:
3-MPA-Induced Seizures = experiment: Antagonism of 3-MPA-induced seizures; assay type: in vivo; conditions: mg/kg i.v. of 3-MPA required to evoke a seizure response; test drug 30 mg/kg p.o. 60 min before 3-MPA; male T/O mice
Description: Several animal seizure models are available for the screening and characterisation of anticonvulsant (antiepileptic) drugs, Most models employ a chemical convulsant to induce seizures and the anticonvulsant potencies of novel compounds are measured in terms of their ability to increase the dose of convulsant required to induce a seizure response (or to prolong the latency to seizure onset following a bolus dose of the convulsant). Most chemical convulsants work by blocking the neurotran […] function of gamma-aminobutyric acid (GABA), the predominant inhibitory neurotransmitter in the mammalian brain. This can be achieved by blocking the postsynaptic action of GABA using pentylenetetrazol or bicuculline, or via a presynaptic action using a GABA synthesis inhibitor to decrease GABA release into the synapse. […] Male albino […] (obtained from Tuck) weighing 28-40 g were used in these studies. […] Immediately following 3-MPA administration, each mouse was placed individually into a cage for observation. The seizure response of each animal was scored quantally as present or absent (response or non-response) during the 5 min period immediately following 3-MPA administration. A seizure response was defined as the onset of the initial clonic phase of the seizure (abrupt loss of righting reflex accompanied by vocalisation). The seizure threshold (in terms of mg/kg i.v. of 3-MPA required to evoke a seizure response) was determined in each treatment group by a sequential up/down method followed by modified probit analysis of the quantal data. […] In these studies, 3-MPA was obtained from Sigma. […] Drugs were administered in a dose volume of 10 ml/kg body weight.

[1] = test system: elevated zero-maze model of anxiety; conditions: dose of 100 mg/Kg; orally by gavage 1 hour prior to zero-maze testing

With `C#CCNC(=O)N1CC(c2ccc(C(C)(C)C)cc2)C1` [Example 3, 3-(4-tert-Butylphenyl)-N-(2-propynyl)azetidine-1-carboxamide] the melting point was 141 °C and the “SC = Seizure threshold after treatment with test drug” value (from here on “SC = Seizure threshold”) (3-MPA-Induced Seizures) was 21.4 mg/kg.
For `C=CCNC(=O)N1CC(c2cccc(Cl)c2)C1` [Example 53], the melting point was 65 to 66 °C.
With `C#CCNC(=O)N1CC(c2cccc(Cl)c2)C1` [Example 59] the melting point was 90 to 105 °C (dec.).
Work on `C[C@H](CO)NC(=O)N1CC(c2ccc(Cl)cc2)C1` [Example 39] yielded a melting point of 71 to 75 °C.
In the case of `CC(C)(CO)NC(=O)N1CC(c2ccc(Cl)cc2)C1` [Example 41], the melting point is reported as 134 to 135 °C.
In the case of `C[C@@H](O)CNC(=O)N1CC(c2ccc(C(C)(C)C)cc2)C1` [Example 4, (R)-3-(4-tert-Butylphenyl)-N-(2-hydroxypropyl)azetidine-1-carboxamide], the “SC = Seizure threshold” value (3-MPA-Induced Seizures) is reported as 27.3 mg/kg.
`NC(=O)N1CC(c2cccc(C(F)(F)F)c2)C1` [Example 37] showed a melting point of 198 °C.
With `C=CCNC(=O)N1CC(c2ccc(Cl)cc2)C1` [Example 1] the “SC = Seizure threshold” value (3-MPA-Induced Seizures) was 42.7 mg/kg.
For `C[C@@H](O)CNC(=O)N1CC(c2ccccc2C(F)(F)F)C1` [Example 32], the melting point was 89 °C.
In the case of `C[C@H](CO)NC(=O)N1CC(c2ccc(Cl)cc2)C1` [Example 40], the melting point is reported as 82 to 85 °C.
For `C[C@H](O)CNC(=O)N1CC(c2ccc(C(F)(F)F)cc2)C1` [Example 15], the “SC = Seizure threshold” value (3-MPA-Induced Seizures) was 58.4 mg/kg.
`CC(C)(O)CNC(=O)N1CC(c2ccc(C(F)(F)F)cc2)C1` [Example 84] showed a melting point of 123 to 124 °C.
Compound `CCCNC(=O)N1CC(c2ccc(C(F)(F)F)cc2)C1` [Example 47] has a melting point of 127 to 128.5 °C.
`C=CCNC(=O)N1CC(c2ccc(C(F)(F)F)cc2)C1` [Example 46] showed a melting point of 136 to 137.5 °C.
`O=C(N[C@@H]1CCCC[C@H]1O)N1CC(c2ccc(F)cc2)C1` [Example 76] gave a melting point of 141 to 142.5 °C.
For `C#CCNC(=O)N1CC(c2cccc(C(F)(F)F)c2)C1` [Example 19, 3-(3-(Trifluoromethyl)phenyl)-N-(2-propynyl)azetidine-1-carboxamide], the “SC = Seizure threshold” value (3-MPA-Induced Seizures) was >200.0^a mg/kg.
With `C[C@@H](O)CNC(=O)N1CC(c2ccc(F)cc2)C1` [Example 7, (R)-3-(4-Fluorophenyl)-N-(2-hydroxypropyl)azetidine-1-carboxamide] the melting point was 104 to 105 °C and the “SC = Seizure threshold” value (3-MPA-Induced Seizures) was 54.4 mg/kg.
In the case of `C[C@H](O)CNC(=O)N1CC(c2cccc(F)c2)C1` [Example 48], the melting point is reported as 79.5 to 80 °C.
Compound `C#CCNC(=O)N1CC(c2ccc(Cl)c(F)c2)C1` [Example 31] has a melting point of 132 °C.
Work on `C[C@@H](O)CNC(=O)N1CC(c2ccc(C(F)(F)F)cc2F)C1` [Example 58] yielded a melting point of 106 to 107 °C.
With `CC(=O)CNC(=O)N1CC(c2ccc(C(F)(F)F)cc2)C1` [Example 80] the melting point was 139.5 to 141 °C.
With `CC(C)(O)CNC(=O)N1CC(c2cccc(C(F)(F)F)c2)C1` [Example 56] the melting point was 94.5 to 96 °C.
`CC(O)CNC(=O)N1CC(c2ccc(Cl)cc2)C1` (stereo not shown) [Example 71] showed a melting point of 92.5 to 94 °C.
For `C[C@@H](O)CNC(=O)N1CC(c2cccc(F)c2)C1` [Example 83], the melting point was 77.5 to 79 °C.
Work on `CCC(C)NC(=O)N1CC(c2ccc(F)cc2)C1` (stereo not shown) [Example 74] yielded a melting point of 100 to 102 °C.
`C[C@@H](O)CNC(=O)N1CC(c2cc(F)cc(Cl)c2)C1` [Example 70] showed a melting point of 81 to 82.5 °C.
`COCC(C)NC(=O)N1CC(c2ccc(Cl)cc2)C1` (stereo not shown) [Example 38] gave a melting point of 110 °C.
With `C[C@@H](O)CNC(=O)N1CC(c2ccc(F)c(C(F)(F)F)c2)C1` [Example 27] the melting point was 69 to 71 °C.
For `NC(=O)N1CC(c2ccc(F)cc2)C1` [Example 67], the melting point was 205 to 208.5 °C.
For `CC(C)(O)CNC(=O)N1CC(c2ccc(F)cc2)C1` [Example 55], the melting point was 77 to 78.5 °C.
`O=C(NCCCO)N1CC(c2ccc(F)cc2)C1` [Example 65] showed a melting point of 90 to 93 °C.
In the case of `CC[C@@H](O)CNC(=O)N1CC(c2ccc(F)cc2)C1` (hydrate or solvate) [Example 75], the melting point is reported as 77 to 79 °C.
Compound `NCC1CCN(C(=O)N2CC(c3ccc(Cl)cc3)C2)CC1` [Example 44] has a melting point of 137 to 138 °C.
Work on `C#CCNC(=O)N1CC(c2cc(F)cc(Cl)c2)C1` [Example 61] yielded a melting point of 108.5 to 110 °C.
For `C[C@@H](O)CNC(=O)N1CC(c2ccc3ccccc3c2)C1` [Example 63], the melting point was 143 to 144 °C.
For `O=C(NCCO)N1CC(c2ccc(F)cc2)C1` [Example 57], the melting point was 99 to 101 °C.
In the case of `CC(C)(O)CNC(=O)N1CC(c2cc(F)cc(Cl)c2)C1` [Example 68], the melting point is reported as 112.5 to 113.5 °C.
`C[C@@H](O)CNC(=O)N1CC(c2ccc(F)c(F)c2)C1` [Example 21] showed a melting point of 108 to 109 °C.
`C[C@@H](O)CNC(=O)N1CC(c2ccccc2Cl)C1` [Example 34] showed a melting point of 109 °C.
For `C[C@@H](CO)NC(=O)N1CC(c2ccc(F)cc2)C1` [Example 77], the melting point was 118 to 120 °C.
For `C#CCNC(=O)N1CC(c2ccc(Cl)cc2)C1` [Example 8, (3-(4-Chlorophenyl)-N-2-propynyl)azetidine-1-carboxamide], the “SC = Seizure threshold” value (3-MPA-Induced Seizures) was 100 mg/kg.
With `C[C@H](O)CNC(=O)N1CC(c2cc(Cl)cc(Cl)c2)C1` [Example 49] the melting point was 110 to 111 °C.
`C[C@@H](O)CNC(=O)N1CC(c2ccc(F)c(Cl)c2)C1` [Example 23] showed a melting point of 83 to 84 °C.
With `CC(C)(O)CNC(=O)N1CC(c2cccc(Cl)c2)C1` [Example 29] the melting point was 102 °C.
`C[C@H](O)CNC(=O)N1CC(c2cccc(Cl)c2)C1` [Example 51] gave a melting point of 78 to 80 °C.
In the case of `C[C@@H](O)CNC(=O)N1CC(c2cccc(Cl)c2Cl)C1` [Example 35], the melting point is reported as 111 °C.
Compound `C=CCNC(=O)N1CC(c2cccc(F)c2)C1` [Example 54] has a melting point of 62.5 to 63.5 °C.
Compound `CC(C)(O)CNC(=O)N1CC(c2ccc(F)c(C(F)(F)F)c2)C1` [Example 64] has a melting point of 110 to 111.5 °C.
In the case of `C#CCNC(=O)N1CC(c2ccc(F)cc2)C1` [Example 6, 3-(4-Fluorophenyl)-N-(2-propynyl)azetddine-1-carboxamide], the “SC = Seizure threshold” value (3-MPA-Induced Seizures) is reported as 59.5 mg/kg and the “anxiolytic activity (increase in the frequency of head dips)” value [1] is reported as “effective”.
In the case of `C[C@H](NC(=O)N1CC(c2ccc(Cl)cc2)C1)[C@H](O)c1ccccc1` [Example 42], the melting point is reported as 120 to 122 °C.
Compound `C=CCNC(=O)N1CC(c2cccc(C(F)(F)F)c2)C1` [Example 52] has a melting point of 64 to 66 °C.
`CC(C)(O)CNC(=O)N1CC(c2ccc(Cl)cc2)C1` [Example 66] gave a melting point of 114 to 115.5 °C.
For `C=CCNC(=O)N1CC(c2ccc(F)cc2)C1` [Example 5, 3-(4-Fluoropbenyl)-N-(2-propenyl)azetidine-1-carboxamide], the “SC = Seizure threshold” value (3-MPA-Induced Seizures) was 32.4 mg/kg.
`C[C@@H](O)CNC(=O)N1CC(c2ccc(F)cc2F)C1` [Example 36] gave a melting point of 88 to 89 °C.
For `C[C@@H](O)CNC(=O)N1CC(c2ccc(Cl)cc2)C1` [Example 9, (R)-3-(4-Chlorophenyl)-N-(2-hydroxypropyl)azetidine-1-carboxiamide], the “SC = Seizure threshold” value (3-MPA-Induced Seizures) was 29.7 mg/kg.
For `CC(C)(N)CNC(=O)N1CC(c2ccc(Cl)cc2)C1` (as salt: HCl) [Example 79], the melting point was 183 to 184 °C.
Compound `C#CCNC(=O)N1CC(c2ccc(F)c(Cl)c2)C1` [Example 26] has a melting point of 133 °C.
For `C#CCNC(=O)N1CC(c2ccccc2C(F)(F)F)C1` [Example 33], the melting point was 101 °C.
In the case of `CCCNC(=O)N1CC(c2ccc(F)cc2)C1` [Example 45], the melting point is reported as 117 to 118.5 °C.
With `O=C(NCCc1ccccn1)N1CC(c2ccc(Cl)cc2)C1` [Example 43] the melting point was 125 °C.
With `C#CCNC(=O)N1CC(c2ccc(F)c(F)c2)C1` [Example 25] the melting point was 123 °C.
In the case of `O=C(NC[C@H](O)CO)N1CC(c2ccc(Cl)cc2)C1` [Example 78], the melting point is reported as 90 to 92 °C.
`NC(=O)N1CC(c2cc(F)cc(Cl)c2)C1` [Example 69] gave a melting point of 198 to 200.5 °C.
In the case of `C[C@H](O)CNC(=O)N1CC(c2ccc(F)cc2)C1` [Example 10], the “SC = Seizure threshold” value (3-MPA-Induced Seizures) is reported as 95.8 mg/kg.
`C#CCNC(=O)N1CC(c2ccc(F)c(C(F)(F)F)c2)C1` [Example 28] gave a melting point of 119 °C.
Work on `C#CCNC(=O)N1CC(c2cccc(F)c2)C1` [Example 72] yielded a melting point of 101.5 to 110.25 °C.
In the case of `C=CCNC(=O)N1CC(c2ccc(C(C)(C)C)cc2)C1` [Example 2, 3-(4-tert-Butylphenyl)-N-(2-propenyl)azeddine-1-carboxamide], the “SC = Seizure threshold” value (3-MPA-Induced Seizures) is reported as 24.2 mg/kg.
